Test results reported in PubChem BioAssay AID1259407 (Chemical Carcinogenesis Research Information System (CCRIS), 2018).
The source made the active and inactive calls. The rule behind the calls is not given here.

System: CCRIS mutagenicity, Ames/micronucleus/aberration tests
Experiment: CCRIS mutagenicity studies
[1] = Test System: AMES SALMONELLA TYPHIMURIUM, Strain/Indicator: TA98, Metabolic Activation: NONE, Method: PREINCUBATION
[2] = Test System: AMES SALMONELLA TYPHIMURIUM, Strain/Indicator: TA98, Metabolic Activation: NONE, Method: STANDARD PLATE
[3] = Test System: AMES SALMONELLA TYPHIMURIUM, Strain/Indicator: TA98, Metabolic Activation: RAT LIVER S-9, AROCLOR 1254, Method: STANDARD PLATE
[4] = Test System: MOUSE LYMPHOMA, Strain/Indicator: L5178Y (TK+/TK-), Metabolic Activation: NONE, Method: SUSPENSION/PLATE
[5] = Test System: AMES SALMONELLA TYPHIMURIUM, Strain/Indicator: TA100, Metabolic Activation: NONE, Method: STANDARD PLATE

NC(=O)N/N=C/c1ccc([N+](=O)[O-])o1
mutagenic call (End Point: IN VITRO CHROMOSOMAL ABERRATIONS, Test System: CHO CELLS, Metabolic Activation: NONE): active; positive | mutagenic call (End Point: IN VITRO CHROMOSOMAL ABERRATIONS, Test System: CHO CELLS, Metabolic Activation: RAT, LIVER, S-9, AROCLOR 1254): active; positive; precipitation occurred at 500 ug/ml | mutagenic call (Test System: AMES SALMONELLA TYPHIMURIUM, Strain/Indicator: TA97, Metabolic Activation: NONE, Method: FLUCTUATION TEST): active; positive | mutagenic call (Test System: AMES SALMONELLA TYPHIMURIUM, Strain/Indicator: TA98(1,8-DNP6), Metabolic Activation: NONE, Method: STANDARD PLATE): active; positive | mutagenic call (Test System: AMES SALMONELLA TYPHIMURIUM, Strain/Indicator: TA98(1,8-DNP6), Metabolic Activation: RAT, LIVER, S-9, 3-METHYLCHOLANTHRENE, Method: STANDARD PLATE): active; positive | mutagenic call (Test System: AMES SALMONELLA TYPHIMURIUM, Strain/Indicator: TA98(NR), Metabolic Activation: NONE, Method: STANDARD PLATE): active; positive | mutagenic call (Test System: AMES SALMONELLA TYPHIMURIUM, Strain/Indicator: TA98(NR), Metabolic Activation: RAT, LIVER, S-9, 3-METHYLCHOLANTHRENE, Method: STANDARD PLATE): active; positive | mutagenic call (Test System: AMES SALMONELLA TYPHIMURIUM, Strain/Indicator: TA98, Metabolic Activation: HAMSTER, LIVER, S-9, AROCLOR 1254 (10%), Method: PREINCUBATION): active; positive | mutagenic call (Test System: AMES SALMONELLA TYPHIMURIUM, Strain/Indicator: TA98, Metabolic Activation: HAMSTER, LIVER, S-9, AROCLOR 1254, Method: PREINCUBATION): active; positive | mutagenic call [1]: active; positive | mutagenic call [2]: active; positive | mutagenic call [3]: active; positive | mutagenic call (Test System: AMES SALMONELLA TYPHIMURIUM, Strain/Indicator: TA98, Metabolic Activation: RAT, LIVER, S-9, 3-METHYLCHOLANTHRENE, Method: STANDARD PLATE): active; positive | mutagenic call (Test System: AMES SALMONELLA TYPHIMURIUM, Strain/Indicator: TA98, Metabolic Activation: RAT, LIVER, S-9, AROCLOR 1254 (10%), Method: PREINCUBATION): active; positive | mutagenic call (Test System: AMES SALMONELLA TYPHIMURIUM, Strain/Indicator: TA98, Metabolic Activation: RAT, LIVER, S-9, AROCLOR 1254, Method: PREINCUBATION): active; positive | mutagenic call (Test System: AMES SALMONELLA TYPHIMURIUM, Strain/Indicator: TA98, Metabolic Activation: RAT, LIVER, S-9, KC500 OR PHENOBARBITAL, Method: LIQUID SUSPENSION): active; positive | mutagenic call (Test System: AMES SALMONELLA TYPHIMURIUM, Strain/Indicator: TA100, Metabolic Activation: HAMSTER, LIVER, S-9, AROCLOR 1254 (10%), Method: PREINCUBATION): active; positive | mutagenic call (Test System: AMES SALMONELLA TYPHIMURIUM, Strain/Indicator: TA100, Metabolic Activation: HAMSTER, LIVER, S-9, AROCLOR 1254, Method: PREINCUBATION): active; positive | mutagenic call (Test System: AMES SALMONELLA TYPHIMURIUM, Strain/Indicator: TA100, Metabolic Activation: NONE, Method: PREINCUBATION): active; positive | mutagenic call (Test System: AMES SALMONELLA TYPHIMURIUM, Strain/Indicator: TA100, Metabolic Activation: RAT, LIVER, S-9, AROCLOR 1254 (10%), Method: PREINCUBATION): active; positive | mutagenic call (Test System: AMES SALMONELLA TYPHIMURIUM, Strain/Indicator: TA100, Metabolic Activation: RAT, LIVER, S-9, AROCLOR 1254, Method: PREINCUBATION): active; positive | mutagenic call (Test System: AMES SALMONELLA TYPHIMURIUM, Strain/Indicator: TA100, Metabolic Activation: RAT, LIVER, S-9, KC500 OR PHENOBARBITAL, Method: LIQUID SUSPENSION): active; positive | mutagenic call (Test System: AMES SALMONELLA TYPHIMURIUM, Strain/Indicator: TA102, Metabolic Activation: NONE, Method: STANDARD PLATE): active; positive | mutagenic call (Test System: AMES SALMONELLA TYPHIMURIUM, Strain/Indicator: TA102, Metabolic Activation: RAT LIVER S-9, AROCLOR 1254, Method: STANDARD PLATE): active; positive | mutagenic call (Test System: AMES SALMONELLA TYPHIMURIUM, Strain/Indicator: TA1535, Metabolic Activation: HAMSTER, LIVER, S-9, AROCLOR 1254 (10%), Method: PREINCUBATION): active; positive | mutagenic call (Test System: AMES SALMONELLA TYPHIMURIUM, Strain/Indicator: TA1535, Metabolic Activation: HAMSTER, LIVER, S-9, AROCLOR 1254, Method: PREINCUBATION): active; positive | mutagenic call (Test System: AMES SALMONELLA TYPHIMURIUM, Strain/Indicator: TA1535, Metabolic Activation: NONE, Method: PREINCUBATION): inactive; negative | mutagenic call (Test System: AMES SALMONELLA TYPHIMURIUM, Strain/Indicator: TA1535, Metabolic Activation: RAT, LIVER, S-9, AROCLOR 1254 (10%), Method: PREINCUBATION): active; positive | mutagenic call (Test System: AMES SALMONELLA TYPHIMURIUM, Strain/Indicator: TA1535, Metabolic Activation: RAT, LIVER, S-9, AROCLOR 1254, Method: PREINCUBATION): active; positive | mutagenic call (Test System: AMES SALMONELLA TYPHIMURIUM, Strain/Indicator: TA1537, Metabolic Activation: RAT, LIVER, S-9, AROCLOR 1254, Method: PREINCUBATION): inactive; negative | mutagenic call (Test System: E. COLI, Strain/Indicator: EE97, Metabolic Activation: NONE, Method: FLUCTUATION TEST): active; positive | mutagenic call (Test System: E. COLI, Strain/Indicator: WP2, Metabolic Activation: NONE, Method: FLUCTUATION TEST): active; positive | mutagenic call (Test System: E. COLI, Strain/Indicator: WP2, Metabolic Activation: NONE, Method: SPOT): active; positive | mutagenic call (Test System: E. COLI, Strain/Indicator: WP2, Metabolic Activation: NONE, Method: STANDARD PLATE): active; positive | mutagenic call (Test System: E. COLI, Strain/Indicator: WP2 UVRA, Metabolic Activation: NONE, Method: FLUCTUATION): active; positive | mutagenic call (Test System: E. COLI, Strain/Indicator: WP2 UVRA, Metabolic Activation: NONE, Method: SPOT): active; positive | mutagenic call (Test System: E. COLI, Strain/Indicator: WP2 UVRA, Metabolic Activation: NONE, Method: STANDARD PLATE): active; positive | mutagenic call [4]: active; positive

CC(Br)C(N)=O (centres undefined)
mutagenic call (Test System: AMES SALMONELLA TYPHIMURIUM, Strain/Indicator: TA100, Metabolic Activation: MOUSE, LIVER, S-9, AROCLOR 1254, Method: STANDARD PLATE): active; positive | mutagenic call [5]: active; positive

CCC[CH2][Sn]([Cl])([CH2]CCC)[CH2]CCC
mutagenic call (Test System: AMES SALMONELLA TYPHIMURIUM, Strain/Indicator: TA98, Metabolic Activation: NONE, Method: SUSPENSION/PLATE): inactive; negative | mutagenic call (Test System: AMES SALMONELLA TYPHIMURIUM, Strain/Indicator: TA100, Metabolic Activation: NONE, Method: SUSPENSION/PLATE): active; positive

CCCCCOC(=O)C=Cc1ccc([N+](=O)[O-])o1
mutagenic call [1]: active; positive

CCO[Si](C)(OCC)OCC
mutagenic call [2]: inactive; negative | mutagenic call [3]: inactive; negative | mutagenic call [5]: inactive; negative | mutagenic call (Test System: AMES SALMONELLA TYPHIMURIUM, Strain/Indicator: TA100, Metabolic Activation: RAT LIVER S-9, AROCLOR 1254, Method: STANDARD PLATE): inactive; negative | mutagenic call (Test System: AMES SALMONELLA TYPHIMURIUM, Strain/Indicator: TA1535, Metabolic Activation: NONE, Method: STANDARD PLATE): inactive; negative | mutagenic call (Test System: AMES SALMONELLA TYPHIMURIUM, Strain/Indicator: TA1535, Metabolic Activation: RAT LIVER S-9, AROCLOR 1254, Method: STANDARD PLATE): inactive; negative | mutagenic call (Test System: AMES SALMONELLA TYPHIMURIUM, Strain/Indicator: TA1537, Metabolic Activation: NONE, Method: STANDARD PLATE): inactive; negative | mutagenic call (Test System: AMES SALMONELLA TYPHIMURIUM, Strain/Indicator: TA1537, Metabolic Activation: RAT LIVER S-9, AROCLOR 1254, Method: STANDARD PLATE): inactive; negative | mutagenic call (Test System: AMES SALMONELLA TYPHIMURIUM, Strain/Indicator: TA1538, Metabolic Activation: NONE, Method: STANDARD PLATE): inactive; negative | mutagenic call (Test System: AMES SALMONELLA TYPHIMURIUM, Strain/Indicator: TA1538, Metabolic Activation: RAT LIVER S-9, AROCLOR 1254, Method: STANDARD PLATE): inactive; negative | mutagenic call (Test System: E. COLI, Strain/Indicator: P3078 POLA, Metabolic Activation: NONE, Method: SPOT TEST): inactive; negative | mutagenic call (Test System: E. COLI, Strain/Indicator: P3078 POLA, Metabolic Activation: RAT LIVER S-9, AROCLOR 1254, Method: SPOT TEST): inactive; negative | mutagenic call (Test System: E. COLI, Strain/Indicator: W3110, Metabolic Activation: NONE, Method: SPOT TEST): inactive; negative | mutagenic call (Test System: E. COLI, Strain/Indicator: W3110, Metabolic Activation: RAT LIVER S-9, AROCLOR 1254, Method: SPOT TEST): inactive; negative | mutagenic call [4]: inactive; negative | mutagenic call (Test System: MOUSE LYMPHOMA, Strain/Indicator: L5178Y (TK+/TK-), Metabolic Activation: RAT, LIVER, S-9, Method: SUSPENSION/PLATE): inactive; negative
